“Also recorded” adds a separate entry of the source. Where a name gives a salt, the structure may show the parent alone. Read-outs that look alike come from different tables or passages of the source.
Assays:
HUVEC [1] = assay: HUVEC tube formation assay; assay type: cell-based, human; conditions: Homo sapiens, HUVEC, 1 μM in 0.1% DMSO
Method: (§1) Human umbilical vein endothelial cells (HUVEC) were purchased from PromoCell. […] HUVEC and LEC were cultured in endothelial basal medium EBM (Cambrex) supplemented with 20% fetal bovine serum (Invitrogen), antibiotic-antimycotics (100 U/ml penicillin, 100 μg/ml streptomycin, 250 ng/ml amphotericin; Invitrogen). 2 mM L-glutamine (Invitrogen), 10 μg/ml hydrocortisone (Fluka) and 25 μg/ml N^6,2′-O-dibutyryladenosine 3′,5′-cyclic monophosphate sodium salt (Fluka) for up to eleven passages.
The effect of the selected chemicals on the formation of tube-like structures was performed as follows. […] After overnight incubation at 37° C. the treated cell cultures were fixed with 4% paraformaldehyde. Each chemical treatment was performed in triplicate and the experiment was repeated at least three times. Three representative images of hotspots with tube-like structures were taken per well using a digital camera (AxioCam MRm, Carl Zeiss) mounted on an inverted microscope (Axiovert 200M, Carl Zeiss). The length of the tube-like structures was measured using the IPLab software (BD Biosciences). For each experimental condition, results are represented as average total tube length (μm) per area (three image fields).
The effects of the selected compounds on endothelial tube formation was assessed after over treatment of LEC and HUVEC cultures at a compound concentration of 1 μM in 0.1% DMSO. The length of the tube-like structures was measured using the IPLab software.

LEC [2] = assay: LEC cell proliferation assay; assay type: cell-based, human; conditions: 10 μM in 0.1% DMSO, 48 hours; for activity at 10 µM: Homo sapiens, 48 h, read-out: LEC proliferation
Method: as §1
(§2) The intensity of fluorescence, which is proportional to the number of viable cells, was measured using a microplate reader (SpectraMax Gemini EM; Molecular Devices). The chemical treatments were performed in five replicates.
(§3) The cell proliferation assays were performed by treating the endothelial cell cultures with compounds at a screening dose of 10 μM in 0.1% DMSO for 48 hours (FIG. 6a; Table 10).

Xenopus embryos = conditions: for edema or other phenotype in compound-treated Xenopus embryos/tadpoles (in words) / Lethality (NF) / Onset (NF): 1% DMSO; for Lethality: — = no stage of lethality given; for Onset (NF): onset of edema; for Type of edema Periocular: * = causing bulging eyes, # = bilateral, causing narrow-set eyes; for Type of edema Ventral: ‡ = edemas also detected in the gut
Procedure, shortened: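 Stage 31 (37 hpf) Xenopus embryos, five per well, exposed to 20 µM compound in 1% DMSO at 23 °C for 4 days. Edema, lethality and other external phenotypes were scored daily by two investigators at stages 39, 41, 45 and 47.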

[3] = system: blood vessel development and/or lymphangiogenesis in Xenopus embryos; assay type: in vivo, Xenopus laevis; conditions: for blood vessel development phenotype (apj expression, in words): 20 μM from stage 31, fixed at stage 35/36; for lymph vessel development phenotype (vegfr3 expression, in words): 20 μM from stage 31, fixed at stage 42; for ALH phenotype: anterior lymph heart; for ALS phenotype: anterior lymph sac; for ISV phenotype: intersomitic vessels; for PCV phenotype: posterior cardinal vein; for PLV phenotype: posterior lymph vessels; for VVN phenotype: vitelline vein network
Procedure, shortened: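 Albino Xenopus embryos treated at 20 μM final (from 10-mM DMSO stocks) in screening medium, 7 per well, from stage 31 (37 hpf) to stage 35/36 (50 hpf) or 42 (80 hpf). Fixed in 4% paraformaldehyde and scored by whole-mount in situ hybridization: vasculogenesis and intersomitic vein angiogenesis at stage 35/36, lymph vessel development at stage 42.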

LEC [4] = assay: cells; assay type: cell-based, human; conditions: 1 μM in 0.1% DMSO; for activity at 1 µM: Homo sapiens
Procedure, shortened: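 HUVEC and LEC in EBM with 20% FBS, hydrocortisone and dibutyryl-cAMP, up to eleven passages, treated overnight at 37 °C with compound at 1 μM in 0.1% DMSO, then fixed in 4% paraformaldehyde. Read-out: total tube length (μm) per area over three hotspot images per well, triplicate wells.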

HUVEC [5] = assay: HUVEC cell proliferation assay; assay type: cell-based, human; conditions: 10 μM in 0.1% DMSO, 48 hours; for activity at 10 µM: Homo sapiens, HUVEC, 48 h, read-out: HUVEC proliferation
Method: as §1, §2, §3

[6] = system: transgenic zebrafish expressing a fluorescent vascular reporter gene; conditions: Tran et al., 2007, cited from earlier work; for penetration of embryos: highly hydrophilic compounds
[7] = overnight, read-out: HUVEC tube formation
[8] = read-out: HUVEC tube formation (tube length)
[9] = compounds causing edema, 20 μM, treatment from stage 31, scored to stage 47
[10] = 20 μM, treatment from stage 31, Nieuwkoop & Faber stage
[11] = overnight, read-out: LEC tube formation
[12] = read-out: LEC tube formation (tube length)

Structure (SMILES)	activity at 1 µM (HUVEC [1]; [7]) [%]	activity at 1 µM (HUVEC [1]; [8]) [%]	activity at 10 µM (LEC [2]) [%]	Lethality (NF) (Xenopus embryos; [9])	Lethality (Xenopus embryos; embryonic stage)	Onset (NF) (Xenopus embryos; [10])	blood vessel development phenotype (apj expression, in words) [3]	lymph vessel development phenotype (vegfr3 expression, in words) [3]	ALH phenotype ([3]; Xenopus embryos)	ALS phenotype ([3]; Xenopus embryos)	ISV phenotype ([3]; Xenopus embryos)	PCV phenotype ([3]; Xenopus embryos)	PLV phenotype ([3]; Xenopus embryos)	VVN phenotype ([3]; Xenopus embryos)	activity at 1 µM (LEC [4]; [11]) [%]	activity at 1 µM (LEC [4]; [12]) [%]	activity at 10 µM (HUVEC [5]) [%]	Type of edema Ventral (Xenopus embryos; embryonic stage)	Type of edema Pericordial (Xenopus embryos; embryonic stage)	also measured
O=c1c(-c2ccc(O)cc2)coc2cc(O)cc(O)c12 [Genistein, 5,7-Dihydroxy-3-(4-hydroxyphenyl)-4H-1-benzopyran-4-one]	50 to 85	50 to 85	85 to 115	46	41/42	35/36	stunted ISVs and hyperplastic VVN	lymphatic vessels and LECs were absent	impaired	impaired	stunted	normal	impaired	hyperplastic	50 to 85	50 to 85	85 to 115			edema or other phenotype in compound-treated Xenopus embryos/tadpoles (in words) (Xenopus embryos; 20 μM, treatment from stage 31): edemas localized to the tail tip; Type of edema Tail tip (Xenopus embryos; embryonic stage): 35/36
COc1cc2ncnc(Nc3cccc(Cl)c3)c2cc1OC [Tyrphostin AG 1478, N-(3-Chlorophenyl)-6,7-dimethoxy-4-quinazolinamine]				46	46 embryonic stages according to Nieuwkoop and Faber (NF)													45 embryonic stages according to Nieuwkoop and Faber (NF)		recovery as antiangiogenic compound in the transgenic zebrafish screen [6]: recovery; scored in the phenotypic Xenopus screens (Xenopus embryos; 20 μM, known antiangiogenic compounds): active; Type of edema Periocular (Xenopus embryos; embryonic stage): 45 embryonic stages according to Nieuwkoop and Faber (NF); Cardiac phenotype (Xenopus embryos; embryonic stage, ¶ = the heart chambers were enlarged): 45¶ embryonic stages according to Nieuwkoop and Faber (NF)
N#CC(=Cc1ccc(O)c(O)c1)C(=O)Nc1ccccc1 [Tyrphostin AG 494, N-Phenyl-3,4-dihydroxybenzylidenecyanoacetamide]	85 to 115		85 to 115	40	40 embryonic stages according to Nieuwkoop and Faber (NF)						impaired	hypoplastic		hypoplastic	50 to 85		85 to 115		39 embryonic stages according to Nieuwkoop and Faber (NF)	effect on LEC tube formation (in words) (LEC [4]): preferentially blocked tube formation in LEC rather than HUVEC cultures
CC(C)c1ccc2c(c1)c(SC(C)(C)C)c(CC(C)(C)C(=O)[O-])n2Cc1ccc(Cl)cc1.[Na+] [MK-886, 3[3-tert-Butylthio-1-(4-chlorobenzyl)-5-isopropyl-1H-indol-2-yl]-2,2-dimethylpropionic acid, sodium salt]	50 to 85	50 to 85	85 to 115				hypoplasia of the VVN				normal	normal		hypoplastic	50 to 85	50 to 85	115 to 150			edema or other phenotype in compound-treated Xenopus embryos/tadpoles (in words) (Xenopus embryos; 20 μM, treatment from stage 31): causing lethality; Lethality (NF) (Xenopus embryos; compounds causing lethality, 20 μM, treatment from stage 31, Nieuwkoop & Faber stage): 39 NF; Phenotype class in vivo ([3]; Xenopus embryos, 20 μM, vascular phenotype): VVN hypoplasia
COC(=O)C1=C(C)NC(C)=C(C(=O)OCCN(C)Cc2ccccc2)C1c1cccc([N+](=O)[O-])c1 (centres unmarked) [Nicardipine hydrochloride]	85 to 115	85 to 115	85 to 115	45	45 embryonic stages according to Nieuwkoop and Faber (NF)	41/42			dysplastic	dysplastic			hypoplastic		85 to 115	85 to 115	85 to 115	41/42	41/42	lymph vessel development phenotype (vegfr3 expression, in words) ([3]; hydrochloride): inhibiting preferentially lymphatic vascular development; also recorded: discontinuatous, dysplastic lymphatic vessels; Blood vessel phenotype ([3]; Xenopus embryos): normal
CC(C)COC(=O)OCN1C(=O)CN(CCN2CC(=O)N(COC(=O)OCC(C)C)C(=O)C2)CC1=O [Sobuzoxane, 4,4′-(1,2-Ethanediyl)bis(1-isobutoxycarbonyloxymethyl-2,6-piperazinedione)]	85 to 115	85 to 115	115 to 150	47	47 embryonic stages according to Nieuwkoop and Faber (NF)	41/42		discontinuatous, dysplastic lymphatic vessels	dysplastic	dysplastic			hypoplastic		85 to 115	85 to 115	115 to 150	45 embryonic stages according to Nieuwkoop and Faber (NF)		LEC proliferation (LEC [2]): + (+, moderate promotion (>115-150% of control).); Type of edema Proctodeal (Xenopus embryos; embryonic stage): 45 embryonic stages according to Nieuwkoop and Faber (NF); Type of edema Pronephric (Xenopus embryos; embryonic stage): 41/42; Type of edema Periocular (Xenopus embryos; embryonic stage): 45* embryonic stages according to Nieuwkoop and Faber (NF); Blood vessel phenotype ([3]; Xenopus embryos): normal; HUVEC proliferation (HUVEC [5]): + (+, moderate promotion (>115-150% of control).)
O=C1CCC(N2C(=O)c3ccccc3C2=O)C(=O)N1 (centres unmarked) [thalidomide]																				penetration of embryos [6]: poorly penetrate embryos
CCn1c(=O)c2[nH]c(-c3ccccc3)nc2n(CC)c1=O [1,3-Diethyl-8-phenylxanthine]	115 to 150	123	85 to 115	45	45 embryonic stages according to Nieuwkoop and Faber (NF)	41/42	hyperplasia of the VVN, while ISV angiogenesis occurred unaffected	lymphangiogenesis was largely suppressed	stunted	stunted	normal	normal	hypoplastic	hyperplastic	85 to 115	90	85 to 115	41/42	41/42	
CN(C)c1ccc(O)c2c1C[C@H]1C[C@H]3[C@H](N(C)C)C(O)=C(C(N)=O)C(=O)[C@@]3(O)C(O)=C1C2=O [minocycline hydrochloride]																				penetration of embryos [6]: poorly penetrate embryos
